These results are taken from patent US20070060533A1, “Novel inhibitor of the formation of advanced glycation end product and aldose reductase inhibitor” (Meiji Seika Kaisha Ltd., priority 2003, published 2007).

One assay deals with AGE formation. Description: AGE formation suppression test (glucose + bovine serum albumin, fluorescence). It is filed as biochemical. The conditions noted are these: 67 mmol/L phosphate buffer pH 7.2, 60° C., 48 hours. On the procedure: The test was conducted by a partially modified version of the method of Morimitu et al (Morimitu. Y. et. al., Biosci. Biotech. Biochem., 59, 2018-2021 (1995)). Specifically, glucose, each test substance dissolved in DMSO, and bovine serum albumin were incubated in a 67 mmol/L phosphate buffer (pH 7.2) at 60° C. for 48 hours. AGE was thus sufficiently formed by incubation. The amount of formed AGE was discovered by dilution of the reaction solution followed by measurement using a fluorospectrophotometer. The 50% inhibition concentration (IC50) was calculated using the thus obtained value. The lower the IC50, the higher the AGE-inhibiting activity. This indicates the usefulness of a substance as an inhibitor.
(§1) The test substances used herein were the anthocyanin-containing composition prepared in Example 1 and 4 types of crystalline anthocyanin prepared in Example 2.

The next assay has as its target T1, aldose reductase (Rattus norvegicus, UniProt P07943).
T1 construct: the supernatant was used as a crude enzyme solution; from tissue; host or cells: lenses of Wistar male rats
Description: Aldose-reductase-inhibiting activity test (rat lens crude enzyme). Type of assay: biochemical, Wistar male rats. The conditions noted are these: DL glycerylaldehyde substrate, pH 7.0, 30° C. On the procedure: The test was conducted by a partially modified version of the method of Dufrane et al (Dufrane S. P. et al., Biochem. Med., 32, 99-105 (1984)). Specifically, the lenses of Wistar male rats were homogenized with 10 mmol/L 2-mercapto ethanol. The resultant was centrifuged, and then the supernatant was used as a crude enzyme solution. Each test substance was dissolved in DMSO and then added to a 180 mmol/L phosphate buffer (pH 7.0). 100 mmol/L lithium sulfate and 0.03 mmol/L NADPH were further added to the solution to initiate a reaction at 30° C. using 1 mmol/L DL glycerylaldehyde as a substrate. 0.5 mol/L HCl was added to stop the reaction. 6 mol/L sodium hydroxide containing 10 mmol/L imidazole was added to the solution. The solution was heated for 20 minutes at 60° C. to convert NADP to a fluorescent substance. The thus generated fluorescent substance was subjected to measurement using a fluorospectrophotometer. 50% inhibition concentration (IC50) was calculated using the thus obtained value.
as §1

As for `N=C(N)NN` [Aminoguanidine, aminoguanidine, reference compound], the concentration for half-maximal inhibition (IC50) (usually the concentration that inhibits the measured activity by half) in the assay on AGE formation is 1200 µM.
For `OCC1OC(Oc2cc3c(O)cc(O)cc3[o+]c2-c2ccc(O)c(O)c2)C(O)C(O)C1O` (stereo not shown) [Example 2 (C3G), cyanidin-3-O-glucoside], the values for the IC50 at aldose reductase and in the assay with AGE formation were 4.7 µM and 132 µM, respectively.
In the case of `CC1OC(OCC2OC(Oc3cc4c(O)cc(O)cc4[o+]c3-c3ccc(O)c(O)c3)C(O)C(O)C2O)C(O)C(O)C1O` (stereo not shown) [Example 2 (C3R), cyanidin-3-O-rutinoside], the half-inhibitory concentration (IC50) against aldose reductase was 2.5 µM; in the assay on AGE formation, 154 µM.
The corresponding values for `OCC1OC(Oc2cc3c(O)cc(O)cc3[o+]c2-c2cc(O)c(O)c(O)c2)C(O)C(O)C1O` (stereo not shown) [Example 2 (D3G), delphinidin-3-O-glucoside] are 12.5 µM and 99 µM.
Regarding `CC1OC(OCC2OC(Oc3cc4c(O)cc(O)cc4[o+]c3-c3cc(O)c(O)c(O)c3)C(O)C(O)C2O)C(O)C(O)C1O` (stereo not shown) [Example 2 (D3R), delphinidin-3-O-rutinoside], the IC50 was 15.2 µM against aldose reductase and 163 µM with AGE formation.
For `C[C@@H]1O[C@@H](OC[C@H]2O[C@@H](Oc3c(-c4ccc(O)c(O)c4)oc4cc(O)cc(O)c4c3=O)[C@H](O)[C@@H](O)[C@@H]2O)[C@H](O)[C@H](O)[C@H]1O` [Rutin, rutin, reference compound], at aldose reductase, half-maximal inhibition (IC50) was put at 9 µM.
